Broadly, the pIC50 is −log10 of the IC50, conventionally taken in molar units. Low readings indicate a large IC50, high ones a small IC50.

The source of these data is ChEMBL document CHEMBL2203210, “SAR and in vivo evaluation of 4-aryl-2-aminoalkylpyrimidines as potent and selective Janus kinase 2 (JAK2) inhibitors” (Bioorg Med Chem Lett, 2012).

pIC50: −log10 of the molar value. In brackets after ≈: the same amount, converted by molar mass. Where only a bound is given, the exact number is not on record here.

For data set [1], the target named is T1, Tyrosine-protein kinase JAK2 (Homo sapiens, UniProt O60674).
Data set [2] addresses T2, Tyrosine-protein kinase JAK3 (Homo sapiens, UniProt P52333).
T2 sequence (P52333 whole entry): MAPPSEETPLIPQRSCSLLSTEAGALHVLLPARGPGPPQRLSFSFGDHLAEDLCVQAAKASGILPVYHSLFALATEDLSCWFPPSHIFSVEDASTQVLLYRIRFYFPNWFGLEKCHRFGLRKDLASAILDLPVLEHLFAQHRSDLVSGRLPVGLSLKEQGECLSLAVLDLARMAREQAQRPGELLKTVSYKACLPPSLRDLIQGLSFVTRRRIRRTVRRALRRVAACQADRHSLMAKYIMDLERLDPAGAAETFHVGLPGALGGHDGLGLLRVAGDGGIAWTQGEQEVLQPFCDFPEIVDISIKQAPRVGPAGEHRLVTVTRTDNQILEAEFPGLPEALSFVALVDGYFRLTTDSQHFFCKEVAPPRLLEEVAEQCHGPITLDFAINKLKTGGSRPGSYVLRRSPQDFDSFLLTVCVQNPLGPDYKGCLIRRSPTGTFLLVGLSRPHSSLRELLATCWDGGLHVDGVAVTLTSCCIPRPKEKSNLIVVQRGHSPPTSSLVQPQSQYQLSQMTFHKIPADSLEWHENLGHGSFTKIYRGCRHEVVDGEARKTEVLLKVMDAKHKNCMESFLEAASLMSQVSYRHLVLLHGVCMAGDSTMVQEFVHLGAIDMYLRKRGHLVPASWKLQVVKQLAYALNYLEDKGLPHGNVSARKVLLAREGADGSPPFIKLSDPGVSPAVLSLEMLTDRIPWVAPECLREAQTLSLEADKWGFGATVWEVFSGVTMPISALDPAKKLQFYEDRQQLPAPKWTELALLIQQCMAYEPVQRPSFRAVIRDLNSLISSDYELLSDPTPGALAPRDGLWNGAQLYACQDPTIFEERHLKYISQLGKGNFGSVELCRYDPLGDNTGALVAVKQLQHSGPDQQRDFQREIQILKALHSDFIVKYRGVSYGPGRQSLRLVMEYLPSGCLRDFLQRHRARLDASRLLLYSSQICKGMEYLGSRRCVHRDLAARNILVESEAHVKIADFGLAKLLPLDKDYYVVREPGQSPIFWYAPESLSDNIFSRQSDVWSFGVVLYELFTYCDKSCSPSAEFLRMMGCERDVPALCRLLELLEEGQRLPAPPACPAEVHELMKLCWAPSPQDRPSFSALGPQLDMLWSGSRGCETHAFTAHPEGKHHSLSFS

Data set [3] has as its target T1, Tyrosine-protein kinase JAK2. This is another data set of the same source.
Description: Inhibition of JAK2 in HEL 92.1.7 cells assessed as inhibition of STAT1 phosphorylation
Data set [4] shares this target. The source holds these as a separate data set.
Description: Inhibition of JAK2 in HEL 92.1.7 cells assessed as inhibition of STAT3 phosphorylation
The nature of data set [5]: Kinetic solubility of the compound. Type of data set: physicochemical. To be noted: read-out: Kinetic_solubility.
Data set [6] is described as follows: Selectivity ratio of IC50 for JAK3 to IC50 for JAK2.

T1 sequence (O60674 whole entry): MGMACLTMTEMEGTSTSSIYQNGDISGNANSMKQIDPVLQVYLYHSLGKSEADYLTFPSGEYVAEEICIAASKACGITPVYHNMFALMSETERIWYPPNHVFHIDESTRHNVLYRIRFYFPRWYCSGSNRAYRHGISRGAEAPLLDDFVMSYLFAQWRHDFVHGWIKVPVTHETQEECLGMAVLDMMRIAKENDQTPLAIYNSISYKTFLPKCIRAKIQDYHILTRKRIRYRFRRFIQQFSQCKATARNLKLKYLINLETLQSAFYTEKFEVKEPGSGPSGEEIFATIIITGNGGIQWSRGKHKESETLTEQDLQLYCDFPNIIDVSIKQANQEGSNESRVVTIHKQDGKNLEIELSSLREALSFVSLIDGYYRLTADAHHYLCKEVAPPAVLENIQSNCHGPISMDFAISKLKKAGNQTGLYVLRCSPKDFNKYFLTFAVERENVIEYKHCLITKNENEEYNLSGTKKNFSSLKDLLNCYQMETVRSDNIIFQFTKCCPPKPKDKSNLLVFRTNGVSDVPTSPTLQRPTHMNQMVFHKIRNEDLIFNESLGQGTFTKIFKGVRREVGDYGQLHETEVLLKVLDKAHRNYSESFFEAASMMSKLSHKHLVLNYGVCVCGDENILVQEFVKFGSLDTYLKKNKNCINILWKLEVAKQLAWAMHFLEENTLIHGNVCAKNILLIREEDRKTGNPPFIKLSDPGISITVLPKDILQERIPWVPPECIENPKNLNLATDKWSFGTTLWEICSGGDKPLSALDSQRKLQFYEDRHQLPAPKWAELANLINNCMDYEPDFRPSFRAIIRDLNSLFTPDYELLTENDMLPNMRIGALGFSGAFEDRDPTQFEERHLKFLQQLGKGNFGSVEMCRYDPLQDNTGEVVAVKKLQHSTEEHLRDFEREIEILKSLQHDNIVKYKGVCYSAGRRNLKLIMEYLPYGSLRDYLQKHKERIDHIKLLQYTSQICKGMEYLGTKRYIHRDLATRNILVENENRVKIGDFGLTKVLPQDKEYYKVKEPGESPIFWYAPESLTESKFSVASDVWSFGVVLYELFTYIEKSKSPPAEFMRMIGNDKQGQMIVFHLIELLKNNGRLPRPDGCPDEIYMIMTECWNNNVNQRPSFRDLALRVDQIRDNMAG

Take `CC(=O)Nc1ccc(-c2nc(Nc3ccc(N4CCOCC4)cc3)ncc2C(F)(F)F)cc1`: the pIC50 in data set [1] was 7.40; in data set [2] it was less than 6.01; in data set [3] it was 5.57.
Regarding `CC(=O)Nc1ccc(-c2ccnc(Nc3cccc(N4CCOCC4)c3)n2)cc1`, the pIC50 in data set [1] is 8.38; in data set [4], 6.23; in data set [2], less than 6.01; in data set [3] it was 6.21.
On to `CC(=O)Nc1ccc(-c2ccnc(NCC3CN(C(=O)c4c(Cl)cccc4Cl)C3)n2)cc1`, for which the negative-log IC50 (pIC50) in data set [1] is 5.30; in data set [2], 5.30; in data set [3], less than 4.52.
Consider `CN1CCC[C@@H]1C(=O)Nc1ccc(-c2ccnc(Nc3ccc(N4CCOCC4)cc3)n2)cc1`, for which the negative-log IC50 (pIC50) is 8.28 in data set [1], 5.98 in data set [4], 6.32 in data set [2] and 6.13 in data set [3].
For `CCN1CCC[C@@H]1C(=O)Nc1ccc(-c2ccnc(Nc3ccc(N4CCOCC4)cc3)n2)cc1`, the values for the pIC50 in data set [1], in data set [4] and in data set [3] were 8.04, 5.66 and 5.84, respectively.
Take `CC(=O)Nc1ccc(-c2cc(Nc3ccc(N4CCOCC4)cc3)ncn2)cc1`: the negative logarithm of the IC50 (pIC50) in data set [1] is less than 6.01; in data set [2] it was less than 6.01; in data set [3] it was less than 4.52.
Compound `CC(=O)Nc1ccc(-c2nc(Nc3ccc(N4CCOCC4)cc3)ncc2C)cc1` gave a negative logarithm of the IC50 (pIC50) in data set [2] of 6.98.
`C[C@@H](N)C(=O)Nc1ccc(-c2ccnc(Nc3ccc(N4CCOCC4)cc3)n2)cc1`: the pIC50 in data set [1] was 8.77; in data set [4], 6.34; in data set [2], 6.51; in data set [3] it was 6.48.
The corresponding values for `C[C@H](N)C(=O)Nc1ccc(-c2ccnc(Nc3ccc(N4CCOCC4)cc3)n2)cc1` are 8.06, 5.82, 6.53 and 5.98.
As for `CC(=O)Nc1ccc(-c2ccnc(NC3CCCC(NC(=O)c4c(Cl)cccc4Cl)C3)n2)cc1` (configuration not stated), the figures for the pIC50 in data set [1], in data set [2] and in data set [3] were less than 6.01, less than 6.01 and less than 4.52, respectively.
Consider `CC(=O)Nc1ccc(-c2ccnc(Nc3cccc(NC(=O)c4c(Cl)cccc4Cl)n3)n2)cc1`, for which the pIC50 is 6.89 in data set [1], less than 6.01 in data set [2] and less than 4.52 in data set [3].
The corresponding values for `CC(=O)Nc1ccc(-c2nc(Nc3ccc(N4CCOCC4)cc3)ncc2F)cc1` are 8.36, less than 6.01 and 5.19.
Regarding `CC(=O)Nc1ccc(-c2ccnc(Nc3cccc(NC(=O)c4c(Cl)cccc4Cl)c3)n2)cc1`, the pIC50 is 7.90 in data set [1], 6.30 in data set [4], less than 6.01 in data set [2] and 6.12 in data set [3].
Turning to `CC(=O)Nc1ccc(-c2ccnc(Nc3cccc(N4CCCCC4)c3)n2)cc1`, the pIC50 in data set [1] is 8.19; in data set [4] it was 5.88; in data set [2], less than 6.01; in data set [3], 6.02.
Turning to `CC(=O)Nc1ccc(-c2ccnc(NCCCNC(=O)c3c(Cl)cccc3Cl)n2)cc1`, the results for the pIC50 in data set [1], in data set [2] and in data set [3] were 6.98, less than 5.30 and 5.09, respectively. The solubility kinetic in data set [5] amounted to 6.5 µM (≈ 2.98 µg/mL). In addition, the Ratio IC50 in data set [6] was greater than 50.
Turning to `O=C(Nc1ccc(-c2ccnc(Nc3ccc(N4CCOCC4)cc3)n2)cc1)[C@H]1CCNC1`, the pIC50 in data set [1] was 8.24; in data set [2], 6.43; in data set [3], less than 4.52.
On to `O=C1CC[C@H](C(=O)Nc2ccc(-c3ccnc(Nc4ccc(N5CCOCC5)cc4)n3)cc2)N1`, for which the pIC50 was 9.05 in data set [1], 7.21 in data set [2] and less than 4.52 in data set [3].
Compound `CC(=O)Nc1ccc(-c2ccnc(Nc3cccc(NC(=O)c4ccccc4)c3)n2)cc1` had a pIC50 in data set [2] of less than 6.01.
For the compound `CC(=O)Nc1ccc(-c2ccnc(Nc3ccccc3)n2)cc1`, the pIC50 in data set [1] is 7.89; in data set [4], 5.71; in data set [2], 5.94; in data set [3], 6.00. In addition, in data set [5], the solubility kinetic was determined as 234 µM (≈ 71.2 µg/mL).
On to `CC(=O)Nc1ccc(-c2cc(C)nc(Nc3ccc(N4CCOCC4)cc3)n2)cc1`, for which the negative-log IC50 (pIC50) in data set [1] was less than 6.01; in data set [2] it was less than 6.01; in data set [3], less than 4.52.
With `CC(=O)Nc1ccc(-c2ccnc(Nc3ccc(N4CCOCC4)cc3)n2)cc1`, the negative-log IC50 (pIC50) in data set [4] is 6.10; in data set [2] it was less than 6.01; in data set [3], 6.01. For the same compound, the Ratio IC50 in data set [6] was greater than 250.
As for `N[C@H](CO)C(=O)Nc1ccc(-c2ccnc(Nc3ccc(N4CCOCC4)cc3)n2)cc1`, the pIC50 is 8.57 in data set [1], 5.86 in data set [4], 6.80 in data set [2] and 6.21 in data set [3].
With `CC(=O)Nc1ccc(-c2ccnc(Nc3cccc(NC(=O)c4ccccc4Cl)c3)n2)cc1`, the pIC50 in data set [1] was 8.16; in data set [2] it was less than 6.01; in data set [3], less than 4.52.
